Test results reported in US6482837B1 (priority 1998, dated 2002).
Where two headings read alike, the source gives them in different places.

Tests used:
[1] = tested on: M3 versus M1 and M2 receptors; details: cited from earlier work
guinea pig bladder [2] = details: in vivo; cited from earlier work
[3] = tested on: muscarinic receptors in heart and submaxillary gland; details: in vivo, iv; cited from earlier work
guinea pig bladder [4] = details: in vivo; cited from earlier work; remark: listed apart in the source
Guinea pig detrusor = assay type: cell-based
lung = details: iv
tracheal rings = assay type: cell-based, guinea pig
miniature swine bladder = details: in vivo
muscarinic receptors [5] = details: dog, in vivo; cited from earlier work
muscarinic receptors [6] = details: human, in vivo, cited from earlier work
[7] = in vivo; cited from earlier work
[8] = human, in vivo
M3 receptor = M3 receptor (Homo sapiens, UniProt P20309); details: cited from earlier work
Chain of M3 receptor (P20309 whole entry): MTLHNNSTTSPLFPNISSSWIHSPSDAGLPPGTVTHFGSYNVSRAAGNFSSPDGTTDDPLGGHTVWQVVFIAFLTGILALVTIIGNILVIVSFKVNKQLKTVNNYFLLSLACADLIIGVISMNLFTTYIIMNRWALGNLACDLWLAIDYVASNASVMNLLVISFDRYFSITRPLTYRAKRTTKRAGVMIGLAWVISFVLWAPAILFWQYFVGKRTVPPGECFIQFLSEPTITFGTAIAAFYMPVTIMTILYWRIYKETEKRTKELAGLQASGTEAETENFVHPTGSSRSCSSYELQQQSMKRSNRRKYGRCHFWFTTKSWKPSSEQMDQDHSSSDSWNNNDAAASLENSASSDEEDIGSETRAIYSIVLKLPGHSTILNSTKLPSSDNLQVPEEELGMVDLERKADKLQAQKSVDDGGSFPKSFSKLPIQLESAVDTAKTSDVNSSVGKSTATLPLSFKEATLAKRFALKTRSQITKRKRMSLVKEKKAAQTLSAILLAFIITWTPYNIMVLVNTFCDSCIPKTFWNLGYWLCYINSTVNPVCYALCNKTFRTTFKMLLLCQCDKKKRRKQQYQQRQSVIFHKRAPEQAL

[9] = human, in vivo; cited from earlier work

Compound: 3-(4-benzylpiperazinyl)-1,1-diphenyl-1-hydroxy-2-propanone
- selective for M3 versus M1 [1]: 18 fold
- selective for M3 versus M2 receptors [1]: 242 fold
- separation between bladder function and effect on mydriasis (guinea pig bladder [2]): 20 fold
- separation between bladder function and effect on salivation (guinea pig bladder [2]): 41 fold

Compound: O=C(OC1CCN(CCBr)CC1)C(c1ccccc1)c1ccccc1 [4-DAMP bromo mustard, N-(2-bromoethyl)-4-piperidinyl diphenylacetate]
- receptors alkylated in both the heart and submaxillary gland [3]: more than 95%

Compound: CN(C)CC#CCCC(=O)C(O)(c1ccccc1)C1CCC1 (centres unmarked) [14b, 1-cyclobutyl-7-(dimethylamino)-1-hydroxy-1-phenyl-5-heptyn-2-one]
- duration of action relative to oxybutynin (guinea pig bladder [4]): 5 fold

Compound: COC(=O)C1=CC[C@@H]2CC[C@H]1N2C [AEME, Anhydroecgonine methyl ester]
- recovery of response to ACh after repeated washings (Guinea pig detrusor): did not recover
- response of tissue to 10^−4M ACh (Guinea pig detrusor): reduced response of tissue
- response to a range of ACh concentrations (up to 2×10^−3M) (Guinea pig detrusor): attenuated
- reversal of attenuation by washing (Guinea pig detrusor): not reversed
- safety (lung; in vivo): wide margin of safety
- anticholinergic effects in the lung in vivo (lung): more sustained and dramatic than anticipated
- cholinergic agonist activity (tracheal rings): lacked cholinergic agonist activity
- levels at which antimuscarinic properties on tracheal rings were observed (as low as) (tracheal rings): 10^−9 M
- sensitization to ACh produced by cocaine at 5×10^−6 M (tracheal rings): reduced the sensitization
- type of muscarinic activity in vitro (tracheal rings): potent non-competitive muscarinic antagonist

Compound: C[N+]12CCC(CC1)C(OC(=O)C(O)(c1ccccc1)c1ccccc1)C2 (centres unmarked) [MeQNB, methyl quinuclidinyl benzilate]
- Body Temp increase ° C. (miniature swine bladder): 0 °C
- Heart rate % increase (miniature swine bladder): 0%
- activity relative to oxybutynin (miniature swine bladder; iv): about 10 fold
- rate constant k+1 (muscarinic receptors [5]): 1e+07 ± 1.7e+06 M⁻¹ s⁻¹
- rate constant k−1 (muscarinic receptors [5]): 4.5e+06 ± 500000 M⁻¹ s⁻¹
- rate constant of nonspecific binding (muscarinic receptors [6]): 0.03 min⁻¹
- Kd (muscarinic receptors [6]; read-out: equilibrium dissociation constant kd): 2 ± 0.5 nM

Compound: CN1[C@@H]2CC[C@H]1C[C@@H](OC(=O)C(CO)c1ccccc1)C2 (some centres unmarked) [atropine]
- accumulation in the heart blocked by preinjection [7]: 89%

Compound: O=C1OC2(c3ccc(O)cc3Oc3cc(O)ccc32)c2ccccc21 [fluorescein]
- absorbed from the bladder [8]: About 50%

Compound: COc1ccccc1CNCCCCCCNCCCCCCCCNCCCCCCNCc1ccccc1OC [methoctramine]
- Ki (M3 receptor): 408 nM

Compound: O[Si](CCCN1CCCCC1)(c1ccc(F)cc1)C1CCCCC1 (centres unmarked) [p-F-HHSiD]
- Ki (M3 receptor; read-out: Ki): 28 nM

Compound: CC(CC(c1ccccc1)c1ccccc1)NC(C)(C)C (centres unmarked) [terodiline, Terodiline]
- Bladder volume at first urge and bladder capacity [9]: increased
- micturition frequency and incontinence episodes [9]: reduced
